Consider ten compounds from ChEMBL document CHEMBL1201862, “PubChem BioAssay data set” (2004).

The structures appear in SMILES notation.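 Compound exposure: 48 hours, 5 concentrations, 96-well plates. GI50 = concentration required for 50% inhibition of growth.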 Activity calls are given as the source filed them. Cut-off read from the data, not from the text of the source: active = GI50 up to about 1.1 µM and inactive = higher.

Test systems include CCRF-CEM; A498; HT-29; A549; SN12C; HOP-92; SK-MEL-2; NCI-H522; SF-268; SK-OV-3; SR; EKVX; SF-295; ACHN; HCT-116; SK-MEL-28.
Test in all cases: NCI anticancer screen, dose series, 48 h

Regarding `COC(=O)/C([Se]c1c(C)cc(C)cc1C)=C(/[Se]c1c(C)cc(C)cc1C)C(=O)OC`, the GI50 was > 100 µM (inactive) in the experiment with CCRF-CEM; > 100 µM (inactive) with A498; 91.2 µM (inactive) with HT-29; > 100 µM (inactive) in the experiment on A549; > 100 µM (inactive) in the experiment on SN12C; 68.4 µM (inactive) in the experiment on HOP-92. Moreover, the GI50 with SK-MEL-2 is > 100 µM (inactive); in the experiment with NCI-H522, > 100 µM (inactive); with SF-268 it was > 100 µM (inactive); with SK-OV-3, > 100 µM (inactive); in the experiment with SR it was 39.9 µM (inactive); with EKVX, > 100 µM (inactive). The GI50 in the experiment on SF-295, in the experiment on ACHN and with HCT-116 was > 100 µM (inactive) in each case.

For `CC1CC2OC(=O)C3CC(O)CC(=C23)[C@@]12C[C@@H](c1ccoc1)OC2=O` (some centres not stated), the GI50 in the experiment on CCRF-CEM, in the experiment on SK-MEL-28, with HT-29, with A549, in the experiment on SN12C and in the experiment with HOP-92 was > 100 µM (inactive) in each case. For the same compound, the GI50 in the experiment with SK-MEL-2, in the experiment with NCI-H522, in the experiment with SF-268, in the experiment on SK-OV-3, in the experiment with SR and in the experiment with EKVX was > 100 µM (inactive) in each case. The GI50 with SF-295, in the experiment on ACHN and in the experiment on HCT-116 was > 100 µM (inactive) each time.

Regarding `CCOc1cccc2nc3cccc(C(=O)NCCN(C)C)c3nc12`, the GI50 in the experiment on A498 is 0.74 µM (active); in the experiment with SK-MEL-28, 1.93 µM (inactive); in the experiment with HT-29 it was 0.605 µM (active); with A549, 0.942 µM (active); in the experiment on SN12C it was 0.719 µM (active); in the experiment on HOP-92 it was 1.39 µM (inactive). Moreover, the GI50 in the experiment with SK-MEL-2 was 1.6 µM (inactive); with NCI-H522 it was 2.3 µM (inactive); in the experiment on SK-OV-3, 7.43 µM (inactive); in the experiment on SR, 0.305 µM (active); in the experiment on EKVX, 2.25 µM (inactive); in the experiment with SF-295 it was 1.53 µM (inactive). Further, the GI50 is 0.372 µM (active) in the experiment on ACHN and 0.447 µM (active) in the experiment with HCT-116.

As to `C(=N\OCc1ccccc1)/c1ncccc1C1OCCO1`, the GI50 in the experiment on CCRF-CEM, in the experiment with SK-MEL-28, in the experiment on HT-29, with A549, in the experiment on SN12C and in the experiment with HOP-92 was > 100 µM (inactive) throughout. Besides, the GI50 with SK-MEL-2, in the experiment on NCI-H522, in the experiment with SF-268, in the experiment with SK-OV-3, in the experiment on SR and in the experiment on EKVX was > 100 µM (inactive) each time. The GI50 with SF-295, in the experiment with ACHN and with HCT-116 was > 100 µM (inactive) throughout.

As for `CC1(C(=O)O)CCOc2ccccc21` (configuration not stated), the GI50 with CCRF-CEM, in the experiment with A498, with SK-MEL-28, with HT-29, with A549 and in the experiment on SN12C was > 100 µM (inactive) each time. The GI50 with HOP-92, in the experiment with SF-268, with SR, in the experiment on EKVX, in the experiment on SF-295 and with ACHN was > 100 µM (inactive) in each case. For the same compound, the GI50 with HCT-116 was > 100 µM (inactive).

In the case of `CSc1ccc(OCC2OC2O)cc1` (configuration not stated), the GI50 was 21.7 µM (inactive) in the experiment with CCRF-CEM; 28.1 µM (inactive) in the experiment with A498; 32.3 µM (inactive) in the experiment on HT-29; 42.3 µM (inactive) with A549; 62.2 µM (inactive) in the experiment on SN12C; > 58.2 µM (inactive) in the experiment on HOP-92. Further, the GI50 is > 77.1 µM (inactive) with SK-MEL-2; 23.8 µM (inactive) with NCI-H522; > 100 µM (inactive) in the experiment on SK-OV-3; 45.2 µM (inactive) with SR; > 93.1 µM (inactive) in the experiment with EKVX; 41.1 µM (inactive) in the experiment with SF-295. The GI50 in the experiment with ACHN is 40.5 µM (inactive); in the experiment with HCT-116, 17.3 µM (inactive).

As to `CC(C)CCC[C@@H](C)[C@H]1CC[C@H]2[C@@H]3CC=C4CC(OCCCCN(O)CCCSC5OC(CO)C(O)C(O)C5O)CC[C@]4(C)[C@H]3CC[C@]12C` (some centres not stated), the GI50 is 26.4 µM (inactive) with CCRF-CEM; > 100 µM (inactive) with A498; > 100 µM (inactive) in the experiment on SK-MEL-28; 30.4 µM (inactive) with HT-29; 42.2 µM (inactive) in the experiment with A549; > 100 µM (inactive) in the experiment with SN12C. For the same compound, the GI50 in the experiment on HOP-92 is > 100 µM (inactive); with SK-MEL-2, 17.4 µM (inactive); with NCI-H522 it was 23.1 µM (inactive); in the experiment with SF-268, 52.7 µM (inactive); in the experiment on SK-OV-3, > 100 µM (inactive); in the experiment on SR, 34.7 µM (inactive). The GI50 in the experiment with EKVX was > 100 µM (inactive); in the experiment with SF-295, > 100 µM (inactive); in the experiment on ACHN, > 100 µM (inactive); with HCT-116, 56.1 µM (inactive).

For the compound `COc1cc2c(c(OC)c1OC)-c1ccc(SC)c(=O)cc1[C@@H](NC(=O)c1ccc(C#N)cc1)CC2`, the GI50 in the experiment with CCRF-CEM is < 0.01 µM (active); in the experiment on A498, < 0.01 µM (active); with SK-MEL-28, > 79.8 µM (inactive); with HT-29 it was < 0.01 µM (active); with A549 it was < 0.01 µM (active); with SN12C it was < 0.01 µM (active). For the same compound, the GI50 in the experiment with HOP-92, with SK-MEL-2, in the experiment on NCI-H522, in the experiment with SF-268, in the experiment on SK-OV-3 and in the experiment with SR was < 0.01 µM (active) each time. In addition, the GI50 with EKVX, in the experiment on SF-295, with ACHN and with HCT-116 was < 0.01 µM (active) in each case.

As for `COc1ccc(NC(=O)C2C(=O)N(c3ccc(OC)cc3)C(=O)/C2=N\N)cc1` (configuration not stated), the GI50 in the experiment on CCRF-CEM, in the experiment with A498, in the experiment with SK-MEL-28, in the experiment with HT-29, in the experiment on A549 and with SN12C was > 100 µM (inactive) in each case. The GI50 with HOP-92, with SK-MEL-2, in the experiment with NCI-H522, in the experiment on SF-268, with SR and in the experiment with EKVX was > 100 µM (inactive) each time. Moreover, the GI50 with SF-295, in the experiment on ACHN and in the experiment on HCT-116 was > 100 µM (inactive) throughout.

For the compound `Cc1c(Cl)cccc1NC(=O)CC1C(=O)Nc2ccccc2S1(=O)=O` (configuration not stated), the GI50 in the experiment on CCRF-CEM is 16.5 µM (inactive); in the experiment on A498, 15.3 µM (inactive); in the experiment with SK-MEL-28, 18.6 µM (inactive); in the experiment on HT-29 it was 17.6 µM (inactive); with A549, 18.2 µM (inactive); with SN12C, 16.7 µM (inactive). Also, the GI50 was 15.7 µM (inactive) in the experiment with HOP-92; 19.4 µM (inactive) in the experiment with SK-MEL-2; 19.6 µM (inactive) in the experiment with SF-268; 10.5 µM (inactive) in the experiment on SR; 25.6 µM (inactive) in the experiment on EKVX; 19.7 µM (inactive) in the experiment on SF-295. In addition, the GI50 in the experiment with ACHN is 16.5 µM (inactive); with HCT-116, 15.8 µM (inactive).
